Laboratory results published in paper PMC10514136, “Peptide-conjugated antimiRs improve myotonic dystrophy type 1 phenotypes by promoting endogenous MBNL1 expression” (Molecular Therapy. Nucleic Acids, 2023).

Tests used:
Format in all cases: in vivo, mouse
Mbnl1 mRNA = assay: Mbnl1 transcript levels in muscle by qRT-PCR; details: HSALR mice, 9.2 mg/kg (mean) i.v. every 2 weeks x3, day 45; quadriceps, vs PBS-treated HSALR
Description: Total RNA from murine gastrocnemius and quadriceps muscle was isolated using the miRNeasy Mini Kit (QIAGEN, Hilden, Germany) according to the manufacturer's instructions. One microgram of RNA was digested with DNase I (Invitrogen, Carlsbad, CA) and reverse transcribed with SuperScript II (Invitrogen) using random hexanucleotides. For subsequent PCR reactions, 20 ng of cDNA was used with GoTaq polymerase (Promega). Specific primers were used to analyze the alternative splicing of Nfix, Atp2a1, and Clcn1 in mouse samples (both muscles). Gapdh levels established the endogenous reference levels using 0.2 ng of cDNA. […] PSR index was defined as value%SI minus X %DSI , divided by […] (SI, splicing inclusion of each sample; DSI, disease splicing inclusion; HSI, healthy splicing inclusion). Overall, PSR indicates the amount in both muscles analyzed. […] Commercial TaqMan probes (QIAGEN) were used for mouse (Mbnl1 and Mbnl2; FAM-labeled probes) and reference (GAPDH; MAX-labeled probe) genes. Results were normalized to Gapdh endogenous gene expression. Expression levels were measured using a QuantStudio 5 Real-Time PCR System (Applied Biosystems, Foster City, CA). […] Mouse handling and experimental procedures followed the European law regarding laboratory animal care and experimentation (2003/65/C.E.) and were approved by Conselleria de Agricultura, […] […]

miR-23b = assay: Functional miR-23b levels in gastrocnemius and quadriceps by qRT-PCR; details: HSALR mice, 9.2 mg/kg (mean) i.v. every 2 weeks x3, day 45, vs PBS-treated HSALR
Description: (§1) miRNA expression in muscle tissues was quantified using specific miRCURY-locked nucleic acid microRNA PCR primers (QIAGEN) according to the manufacturer's instructions. […] Expression levels were measured using a QuantStudio 5 Real-Time PCR System (Applied Biosystems, Foster City, CA). […] Mouse handling and experimental procedures followed the European law regarding laboratory animal care and experimentation (2003/65/C.E.) and were approved by Conselleria de Agricultura, […] (reference no. A1539961490857). We used homozygous transgenic HSA^LR (line 20 b) mice,[90] which were kindly provided by Dr Thornton (Rochester, NY) and were housed and bred in our animal facility. […] The mice were randomly allocated to the different treatments as follows: in each cage, each mouse was ear-marked as it was taken out, and each mouse was then assigned to a different treatment. Animals were injected biweekly intravenously with 150 μL of 1× PBS vehicle (controls; […] Mice were sacrificed 45 days after the first injection and the tissues of interest were frozen in liquid nitrogen for the molecular and histological assays. All the mice used in this study ranged from 5 to 5.5 months of age and all were males.

miR-218 = assay: Functional miR-218 levels in gastrocnemius and quadriceps by qRT-PCR; details: HSALR mice, 9.2 mg/kg (mean) i.v. every 2 weeks x3, day 45, vs PBS-treated HSALR
Description: as §1

HSALR mice = assay: Histology, percentage of muscle fibers with central nuclei; details: 9.2 mg/kg (mean) i.v. every 2 weeks x3, day 45
Excerpt: Mouse handling and experimental procedures followed the European law regarding laboratory animal care and experimentation (2003/65/C.E.) and were approved by Conselleria de Agricultura, Generalitat Valenciana (reference no. A1539961490857). We used homozygous transgenic HSA^LR (line 20 b) mice,[90] which were kindly provided by Dr Thornton (Rochester, NY) and were housed and bred in our animal facility. Experimental groups were FVB as healthy control and HSA^LR treated with a scrambled ON (SC) and PBS as negative controls, and HSA^LR mice treated with all six experimental CPP-PMOs. The mice were randomly allocated to the different treatments as follows: in each cage, each mouse was ear-marked as it was taken out, and each mouse was then assigned to a different treatment. […]
Frozen 15-μm sections of mouse gastrocnemius and quadriceps muscles were stained with hematoxylin and eosin and mounted with DPX Mountant for histology (Sigma) according to standard procedures. […] The percentage of fibers containing central nuclei was quantified in a total of 200 fibers in each mouse.

Substance | Mbnl1 mRNA levels (Mbnl1 mRNA) | levels of functional miR-23b (miR-23b) | levels of functional miR-218 (miR-218) | muscle fibers with central nuclei vs PBS-injected mice (HSALR mice)
6aKC-23b (antisense GGUAAUCCCUGGCAAUGUGAU; all phosphorodiamidate morpholino (PMO), T or U not given here; Pip6aKC peptide conjugated) | significant increases in quadriceps |  |  | 
TCTTACCTCAGTTACAATTTA-Pip9b2 [Scramble, reference compound] |  | did not reduce functional levels | did not reduce functional levels | did not differ significantly from PBS-injected ones
